The test system of assay [1] is CD34+ brown adipocyte progenitor cells. Nature of the assay: Multiplexed TaqMan real-time PCR of UCP1 and PPARγ2 mRNA (normalized to cyclophilin A) to quantify differentiation of CD34+ cells into brown adipocytes. It counts as cell-based, human. As to conditions: for differentiation of brown adipocyte progenitor cells into brown adipocytes, as indicated by expression of UCP1 and PPARγ2: in vitro, first screen at 10 μM, actives retested at 1 nM to 50 μM. The text has this: A robust method, previously disclosed, was used for detection of CD34+ cell differentiation into brown adipocytes by simultaneously quantifying mRNA species corresponding to the brown adipocyte marker UCP1, the adipocyte marker PPARγ2, and the “housekeeping” gene cyclophilin A which was used as the internal control.
This method permits analysis of a large number of samples to identify agents that enhance the differentiation of CD34+ cells into brown adipocytes. When differentiated into brown adipocytes, CD34+ cells express much higher levels of UCP1 and PPARγ2 mRNA for a given level of cyclophilin A. UCP1 and PPARγ2 mRNA levels normalized to cyclophilin A mRNA levels give an indication of the level of differentiation of the CD34+ cells into brown adipocytes, independent of the total number of cells in the sample.
Quantification of UCP1, PPARγ2 and cyclophilin A mRNA by multiplexed TaqMan real-time PCR was thus used to quantify differentiation of the CD34+ cells into brown adipocytes.
UCP1 is the key protein in brown adipocytes responsible for uncoupled respiration and is also highly specific for brown adipocyte differentiation. It is expressed exclusively by fully differentiated brown adipocytes and not by the CD34+ progenitor cells. We used a real-time semi-quantitative RT PCR-based assay for detection of UCP1 expression, in order to screen for brown adipocyte recruiters. […] The assay has the added advantage of allowing light microscopic visualization of the distinct morphological changes accompanying differentiation into brown adipocytes. This serves as further confirmation of differentiation.
(§1) Cells were seeded at 10,000 per cm^2 (48-well tissue culture, Chemglass #CLS-3500-048), cultured until confluency (1-4 days) at 37° C. in Endothelial cell growth medium-2 (EGM2) (BulletKit growth medium, Lonza #CC-3162) and until differentiation (6-12 more days). After 1-4 days in EGM2 media the cells were incubated with test agents (or positive controls) for 2-3 days (from day −3 or −2 to day 0). Rosiglitazone (1 μM) and rhBMP7 (6.3 nM) were used as reference agents (positive controls). Then (on day 0) the culture media (containing the test agents or positive controls) was removed, and minimal adipogenic medium (MDM) was added and the cells were left to differentiate of 6-12 days. The MDM media is a modification of the adipogenic media described by Rodriguez et al., and contains: DMEM/Ham's F-12 50/50 Mix (3.151 g/1, 17.5 mM D-glucose, 3.651 g/l L-glutamine) (Cellgro #10-090-CV), 5 μg/ml (0.86 μM) insulin, 1 μM dexamethasone, 100 μM 3-isobutyl-1-methylxanthine, 0.2 nM 3,3′,5-triiodo-L-thyronine, 10 μg/ml (127 nM) transferrin, and 1% penicillin-streptomycin. Adipocyte scores were determined by light microscopy and defined as the number of cells, on a per well basis, that contain multilocular lipid droplets, at the end of the differentiation of the cells, approximately 6 to 12 days following the end of compound treatment and switch into MDM media.
Total RNA was prepared from cells using PureLink RNA Isolation Kit (Invitrogen #12183-016). Alternatively, cells were simply lyzed by freezing (−80° C.). First strand cDNA were synthesized using the High Capacity cDNA Reverse Transcription kit (Applied Biosystems, Foster City, Calif.) and random primers.
Quantitative real-time PCR was performed using an Applied Biosystems StepOnePlus™ instrument, TaqMan Gene Expression Master Mix (Applied Biosystems #4369016), and custom TaqMan gene expression probes and primers for human uncoupling protein-1 “UCP1” (GenBank NM_021833) and for human peptidylprolyl isomerase A “cyclophilin A” (GenBank NM_021130).
Cyclophilin A was used as a control to account for any variations due to the efficiency of reverse transcription. Arbitrary units were determined by normalizing target mRNA levels to cyclophilin A mRNA levels (based on Cts).
A general note: Real-time PCR tracks product formation cycle by cycle.

In assay [2] the test system is CD34+ cells. Nature of the assay: Light microscopy of CD34+ cells for brown adipocyte differentiation (multilocular lipid-containing cells). It counts as cell-based, human. The conditions noted are these: CD34+ cells 6 days following the end of compound treatment and switch into MDM media. Here is the method:
as §1
Pictures of cells were taken using a hand-held digital camera (Nikon Coolpix 950) and inverted microscope (Nikon TMS) used for cell culture observations; images were optimized using Paint.net version 4.0 functions for Auto-Level Brightness and Contrast.

The next assay has as its system DIO mice. Nature of the assay: DIO mouse study of metabolic health, once-daily oral gavage for 28 to 56 days. The conditions noted are these: oral gavage once a day, bezafibrate 60 mg/kg, oxaprozin 50 mg/kg, vs vehicle. Format: in vivo, C57Bl/6 mice. Here is the method:
Obesity and insulin resistance, an early stage in the development of type 2 diabetes (or pre-diabetes), was induced in C57Bl/6 mice by feeding the mice with a high fat diet (Research diet, Cat #D12492, 60/a fat kcal) for 12 weeks starting at 6 weeks of age. The mice were maintained at 22-23° C. with abundant bedding material, maintaining the animals in an environmental temperature close to their thermoneutrality, starting 2 weeks prior to the dosing period and for the full dosing period with a 12 h/12 h light/dark cycle.
Mice were dosed once per day by oral gavage (200 μl per mouse), first for 3 days with the vehicle (PBS+0.5% CMC+0.1% Tween-80) as acclimation for running into the study, then with either vehicle alone or testing material dissolved in the vehicle for […] (4 to 8 weeks).
Body weight was recorded every 3 days, body composition (fat and lean mass with EchoMRI) was assessed at the end of the study (University of Cincinnati Mouse Metabolic Phenotyping Center), blood glucose level (measured with a glucometer) was monitored 3-5 days before (baseline) and at the end of the dosing period.
At the end of the dosing period, animals were fasted for 6 hours and euthanized by CO2, blood was collected, and plasma was isolated and saved at −20° C. Plasma glucose, insulin and leptin levels were assessed 3-5 days before (baseline) and at the end of the dosing period (mice were fasted for 6 hours before all plasma collection) (University of Cincinnati Mouse Metabolic Phenotyping Center). Insulin sensitivity was determined using the homeostasis model assessment of insulin resistance (HOMA-IR). HOMA-IR=(plasma insulin [microIU/ml] x plasma glucose [mM])/22.5.
The mice were maintained on a high fat diet (60% calories from fat) throughout the study. An overnight fast was performed the last night of the study in preparation for glucose tolerance testing.

Assay [3] concerns CD34+ cells. Nature of the assay: Quantification of UCP1 protein by fluorescence immunohistochemistry (IHC). Format: cell-based, human. Here is the method: Culturing and differentiation of CD34+ cells into brown adipocytes were performed using adipogenic differentiation medium lacking (Minimal Differentiation Medium, MDM) or containing 1 μM rosiglitazone (Reference Differentiation Medium, RDM). After 15 days of differentiation cells were fixed with 4% Paraformaldehyde PBS pH 7.4, and incubated with a UCP1 antibody (Abcam ab23841) and Alexafluor 488 goat anti-rabbit antibody to quantify relative UCP1 levels (green) according to standard protocols. Prior to fixation of cells, nuclei were labeled with 5 μM DAPI (blue) for 10 minutes. Each treatment condition was evaluated in triplicate in a 96-well plate corresponding to approximately 360-480 cells for each data point in total. The InCell 1000 Developer Toolbox software was used to develop an automated cell detection script to measure UCP1 signal intensity, using the nuclei and cytoplasm detection algorithms. As a readout, total intensity of UCP1 signal within the cell was used, normalized to cell number.

Take `CC(C)(Oc1ccc(CCNC(=O)c2ccc(Cl)cc2)cc1)C(=O)O` [bezafibrate, 2-(4-{2-[(4-chlorobenzoyl)amino]ethyl}phenoxy)−2-methylpropanoic acid]: the “differentiation of brown adipocyte progenitor cells into brown adipocytes, as indicated by expression of UCP1 and PPARγ2” value (shortened to “differentiation”) in assay [1] is “promote the differentiation of brown adipocyte progenitor cells into brown adipocytes”. Besides, the “brown adipocyte formation by light microscopy” value (shortened to “brown adipocyte formation”) in the assay on CD34+ cells [2] is “promote brown adipocyte formation”. In addition, the body fat mass entry with DIO mice (MRI) is on record as “significant decreases”. In addition, in the assay with DIO mice, the body weight entry is “significant decreases”, the glycemia entry is “significant decreases”, the “insulin resistance index (HOMA-IR)” value was “significant decreases” and the plasma insulin entry is listed as “significant decreases”. Besides, in the assay on DIO mice, the plasma leptin entry was “significant decreases”.
Regarding `O=C(O)c1cc(-c2ccc(F)cc2F)ccc1O` [diflunisal, Diflunisal], in assay [1], the “differentiation” value is “promote the differentiation of brown adipocyte progenitor cells into brown adipocytes”. Also, in the assay with CD34+ cells [2], the “brown adipocyte formation” value was “promote brown adipocyte formation”. The “agents identified by quantification of UCP1 protein by fluorescence IHC” value in the assay on CD34+ cells [3] was “identified using this technique”.
For `CN1c2ccccc2C(NCCCCCCC(=O)O)c2ccc(Cl)cc2S1(=O)=O` (stereo not drawn) [tianeptine, Tianeptine], in assay [1], the “differentiation” value is on record as “promote the differentiation of brown adipocyte progenitor cells into brown adipocytes”. For the same molecule, in the assay with CD34+ cells [2], the “brown adipocyte formation” value was “promote brown adipocyte formation”.
In the case of `CCCN(CCC)S(=O)(=O)c1ccc(C(=O)O)cc1` [probenecid, Probenecid], the “differentiation” value in assay [1] is “promote the differentiation of brown adipocyte progenitor cells into brown adipocytes”. For the same molecule, in the assay on CD34+ cells [2], the “brown adipocyte formation” value is reported as “promote brown adipocyte formation”. In addition, in the assay on CD34+ cells [3], the “agents identified by quantification of UCP1 protein by fluorescence IHC” value is “identified using this technique”.
For the molecule `O=C(O)/C=C/c1ccc(Cn2ccnc2)cc1` [ozagrel, (2E)−3-{4-[(1H-imidazol-1-yl)methyl]phenyl}prop-2-enoic acid], the “differentiation” value in assay [1] is given as “promote the differentiation of brown adipocyte progenitor cells into brown adipocytes”. Moreover, the “brown adipocyte formation” value in the assay on CD34+ cells [2] is listed as “promote brown adipocyte formation”.

B1: BMP7: recombinant human BMP7 (rhBMP7), R&D Systems, reference agent (positive control) (protein, UniProt P18075 293-431, looked up)
Bone morphogenetic protein 7: STGSKQRSQNRSKTPKNQEALRMANVAENSSSDQRQACKKHELYVSFRDLGWQDWIIAPEGYAAYYCEGECAFPLNSYMNATNHAIVQTLVHFINPETVPKPCCAPTQLNAISVLYFDDSSNVILKKYRNMVVRACGCH
On to B1, for which the “recruitment of brown adipocytes” value in assay [1] (CD34+ cells, rosiglitazone 1 μM, BMP7 6 nM (most effective individual concentrations), day −3 to d0) was “robustly increase the recruitment of brown adipocytes”. In addition, the “response of the UCP1/PPARγ2 RT-PCR assay to positive controls” value in assay [1] (positive controls) is recorded as “appropriate dose-responsive behavior”. In addition, the “brown adipocyte formation” value in the assay on CD34+ cells [2] is on record as “promote brown adipocyte formation”.

The values above are taken from patent US20230190689A1, “METHODS AND COMPOSITIONS FOR INDUCING BROWN ADIPOGENESIS” (ENERGESIS PHARMACEUTICALS, INC., priority 2020, published 2023).
